Test results published in the NIST ThermoML archive (doi:10.1016/j.jct.2009.06.019).

Assays:
[1] = 101.33 kPa, Liquid, Vibrating tube method
[2] = xn = mol fraction of the nth substance listed; conditions: 101.3 kPa, Liquid, Vibrating tube method

CN1CCN(C)C1=O [1,3-dimethyl-2-imidazolidinone]
[1]
Conditions | mass density [kg/m3]
278.15 K | 1069.3
288.15 K | 1060.43
298.15 K | 1051.6
308.15 K | 1042.79
313.15 K | 1038.38
318.15 K | 1034

CN1CCN(C)C1=O [1,3-dimethyl-2-imidazolidinone] + O
mass density [kg/m3], [2]
Conditions | 278.15 K | 288.15 K | 298.15 K | 308.15 K | 313.15 K | 318.15 K
x1 = 0.000904 | 1000.51 | 999.59 | 997.49 | 994.45 | 992.61 | 990.61
x1 = 0.001349 | 1000.75 | 999.82 | 997.72 | 994.65 | 992.81 | 990.8
x1 = 0.001765 | 1000.99 | 1000.04 | 997.92 | 994.84 | 992.99 | 990.96
x1 = 0.002486 | 1001.42 | 1000.44 | 998.29 | 995.19 | 993.33 | 991.29
x1 = 0.003566 | 1002.08 | 1001.05 | 998.84 | 995.7 | 993.82 | 991.77
x1 = 0.004326 | 1002.53 | 1001.45 | 999.22 | 996.05 | 994.15 | 992.09
x1 = 0.005478 | 1003.25 | 1002.09 | 999.81 | 996.59 | 994.68 | 992.59
x1 = 0.006268 | 1003.72 | 1002.53 | 1000.22 | 996.97 | 995.04 | 992.94
x1 = 0.006996 | 1004.16 | 1002.93 | 1000.57 | 997.3 | 995.36 | 993.25
x1 = 0.008039 | 1004.82 | 1003.54 | 1001.14 | 997.82 | 995.85 | 993.72
x1 = 0.008854 | 1005.33 | 1004.01 | 1001.57 | 998.22 | 996.23 | 994.08

CN1CCN(C)C1=O [1,3-dimethyl-2-imidazolidinone] + [2H]O[2H]
mass density [kg/m3], [2]
Conditions | 278.15 K | 288.15 K | 298.15 K | 308.15 K | 313.15 K | 318.15 K
x1 = 0.001014 | 1105.53 | 1105.7 | 1104.24 | 1101.46 | 1099.65 | 1097.62
x1 = 0.001853 | 1105.6 | 1105.72 | 1104.2 | 1101.34 | 1099.52 | 1097.48
x1 = 0.002463 | 1105.67 | 1105.72 | 1104.15 | 1101.29 | 1099.44 | 1097.38
x1 = 0.003372 | 1105.77 | 1105.73 | 1104.13 | 1101.19 | 1099.33 | 1097.23
x1 = 0.004298 | 1105.89 | 1105.78 | 1104.08 | 1101.13 | 1099.22 | 1097.09
x1 = 0.004982 | 1105.97 | 1105.83 | 1104.06 | 1101.05 | 1099.13 | 1097.01
x1 = 0.006229 | 1106.16 | 1105.89 | 1104.06 | 1100.95 | 1099 | 1096.83
x1 = 0.007163 | 1106.33 | 1105.96 | 1104.06 | 1100.89 | 1098.91 | 1096.72
x1 = 0.008054 | 1106.48 | 1106.05 | 1104.07 | 1100.87 | 1098.85 | 1096.62
x1 = 0.009084 | 1106.65 | 1106.13 | 1104.08 | 1100.81 | 1098.77 | 1096.51
x1 = 0.01051 | 1106.96 | 1106.33 | 1104.16 | 1100.77 | 1098.67 | 1096.37

[2H]O[2H] [water-d2] + CN1CCN(C)C1=O
[2], x2 = 0
Conditions | mass density [kg/m3]
278.15 K | 1105.46
288.15 K | 1105.7
298.15 K | 1104.31
308.15 K | 1101.59
313.15 K | 1099.83
318.15 K | 1097.81
